Measurements published in paper PMC2700083, “A covalent peptide inhibitor of RGS4 identified in a focused one-bead, one compound library screen” (BMC Pharmacology, 2009).
Residue numbers refer to the chain shown, from its start. Values after ≈ are worked out from the molar mass of the structure shown. Where a SMILES comes first, the peptide text is derived from it. Bridges are numbered along the chain shown (N, C = ends).

What was measured:
[1] = target: T1, RGS4 C148A (Rattus norvegicus, UniProt P49799, C148A); assay: FCPIA, RGS4 cysteine mutant C148A; assay type: binding; details: read-out: 5nd logIC50 (converted)
T1 construct: made in house
T1 sequence (P49799 52-205 C148A limits assumed): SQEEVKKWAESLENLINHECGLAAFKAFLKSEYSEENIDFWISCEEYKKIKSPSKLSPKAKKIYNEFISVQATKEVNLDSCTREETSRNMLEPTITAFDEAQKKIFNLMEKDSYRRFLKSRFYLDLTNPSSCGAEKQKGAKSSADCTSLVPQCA
Method: (§1) Figure 5 Dose curves of 5nd on various RGS4 cysteine mutants. Various concentrations of 5nd were tested for disruption of the RGS4-Gαo interaction for C95A (5 nM), or […], C71A (5nM) or C148A (5nM) (B), A95C in the -7C (5nM), or A132C in the -7C (5nM) (C), A71C in the -7C (5nM), or A148C in the -7C (5nM) (D) or the mutant with no cysteines in the domain (20 nM) or the C-terminus (20 nM) (E) in the FCPIA (mean ± S.E.M., n ≥ 3).
(§2) Proteins were expressed, purified and labeled as described previously. The mutagenesis was done using the "QuickChange Multi Site-Directed Mutagenesis Kit" from Stratagene according to the manufacturer's protocol. The construct of RGS4 used in these studies is a maltose binding protein (MBP-) fusion protein of the RGS4 sequence from which the amphipathic N-terminal helix has been removed (i.e. MBP-RGS4Δ51N). For simplicity in the text, this will be referred to as RGS4. All other RGS proteins were human sequences and were used as Mpb fusions: RGS7 RGS domain (aa: 305–453), RGS8 full length, RGS16 full length, and RGS19ΔC11 (amino acids 1–209). To cleave RGS4Δ51N from the MBP-His6 construct for MS analysis, MBP-His6-RGS4Δ51N was treated with 15% MBP-His6-TEV protease S219V [11] for 22 hours at 4°C and purified over a Ni-NTA column.
(§3) FCPIA was performed as previously published.

[2] = target: T2, RGS4 A148C, -7C (Rattus norvegicus, UniProt P49799, C132A/C183A/C197A/C204A/C71A/C95A); assay: FCPIA, RGS4 A148C in the -7C; assay type: binding; details: read-out: 5nd logIC50 (converted)
T2 construct: made in house
T2 sequence (P49799 52-205 C71A/C95A/C132A/C183A/C197A/C204A): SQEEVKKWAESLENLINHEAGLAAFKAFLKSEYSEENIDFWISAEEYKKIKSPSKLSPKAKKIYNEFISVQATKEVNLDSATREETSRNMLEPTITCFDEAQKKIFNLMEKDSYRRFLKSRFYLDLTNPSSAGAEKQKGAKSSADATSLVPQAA
Method: as §1
(§4) The previous experiments tested which cysteines are necessary for inhibition by 5nd. In an alternative approach, we added cysteines back to the -7C mutant to determine which might be sufficient for 5nd activity. […] Furthermore, Cys132 is involved in the actions but this is clearly not sufficient to explain them. Thus it is concluded that 5nd is at least partially non-selective in its cysteine modification.
(§5) Proteins were expressed, purified and labeled as described previously. The mutagenesis was done using the "QuickChange Multi Site-Directed Mutagenesis Kit" from Stratagene according to the manufacturer's protocol. The construct of RGS4 used in these studies is a maltose binding protein (MBP-) fusion protein of the RGS4 sequence from which the amphipathic N-terminal helix has been removed (i.e. MBP-RGS4Δ51N). For simplicity in the text, this will be referred to as RGS4. […]

[3] = target: T3, RGS4 A71C, -7C (Rattus norvegicus, UniProt P49799, C132A/C148A/C183A/C197A/C204A/C95A); assay: FCPIA, RGS4 A71C in the -7C; assay type: binding; details: read-out: 5nd logIC50 (converted)
T3 construct: made in house
T3 sequence (P49799 52-205 C95A/C132A/C148A/C183A/C197A/C204A): as the sequence (P49799 52-205 C148A limits assumed) above, with C44A, C81A, C132A, C146A, C153A counted along it
Method: as §1, §4, §5

[4] = target: T4, RGS4 A132C, -7C (Rattus norvegicus, UniProt P49799, C148A/C183A/C197A/C204A/C71A/C95A); assay: FCPIA, RGS4 A132C in the -7C; assay type: binding; details: read-out: 5nd logIC50 (converted)
T4 construct: made in house
T4 sequence (P49799 52-205 C71A/C95A/C148A/C183A/C197A/C204A): as the sequence (P49799 52-205 C148A limits assumed) above, with C20A, C44A, C132A, C146A, C153A counted along it
Method: as §1, §4, §5

[5] = target: T5, RGS4 C71A (Rattus norvegicus, UniProt P49799, C71A); assay: FCPIA, RGS4 cysteine mutant C71A; assay type: binding; details: read-out: 5nd logIC50 (converted)
T5 construct: made in house
T5 sequence (P49799 52-205 C71A limits assumed): T2 sequence (P49799 52-205 C71A/C95A/C132A/C183A/C197A/C204A) with A44C, A81C, A132C, A146C, A153C
Method: as §1, §2, §3

[6] = target: T6, RGS4 -7C (Rattus norvegicus, UniProt P49799, C132A/C148A/C183A/C197A/C204A/C71A/C95A); assay: FCPIA, RGS4 -7C mutant (all 7 cysteines removed); assay type: binding; details: read-out: 5nd logIC50 (converted)
T6 construct: made in house
T6 sequence (P49799 52-205 C71A/C95A/C132A/C148A/C183A/C197A/C204A): as the sequence (P49799 52-205 C148A limits assumed) above, with C20A, C44A, C81A, C132A, C146A, C153A counted along it
Method: (§6) Since 5nd forms an irreversible, DTT-sensitive bond with RGS, it was suspected that it binds covalently to a cysteine in the protein through a disulfide bridge. Indeed, removal of all 7 cysteines (termed the -7C mutant) from RGS4 greatly diminished 5nd activity (logIC50 of -3.24 ± 0.14 for -7C vs. -4.36 ± 0.02 for wild type) (Figure 5, Table 2).
as §1, §5

[7] = target: T7, RGS4 no Cys in RGS domain (Rattus norvegicus, UniProt P49799, C132A/C148A/C71A/C95A); assay: FCPIA, RGS4 mutant with no Cys in RGS domain; assay type: binding
T7 construct: made in house
T7 sequence (P49799 52-205 C71A/C95A/C132A/C148A limits assumed): as the sequence (P49799 52-205 C148A limits assumed) above, with C20A, C44A, C81A counted along it
Method: as §6, §1, §5

[8] = target: T8, RGS4 C95A (Rattus norvegicus, UniProt P49799, C95A); assay: FCPIA, RGS4 cysteine mutant C95A; assay type: binding; details: read-out: 5nd logIC50 (converted)
T8 construct: made in house
T8 sequence (P49799 52-205 C95A limits assumed): T2 sequence (P49799 52-205 C71A/C95A/C132A/C183A/C197A/C204A) with A20C, A81C, A132C, A146C, A153C
Method: as §1, §2, §3

[9] = Solubility in buffer by HPLC; assay type: physicochemical
Method: Soluble peptides were synthesized on Rink resin, cleaved and cyclized as described previously. Peptide purity (at least 95%) and solubility were verified by high-performance liquid chromatography and correct mass was verified by MS analysis. ALogP calculations are from. Peptides were prepared as 5 mM stocks in DMSO.

[10] = target: T9, RGS4 A95C, -7C (Rattus norvegicus, UniProt P49799, C132A/C148A/C183A/C197A/C204A/C71A); assay: FCPIA, RGS4 A95C in the -7C; assay type: binding; details: read-out: 5nd logIC50 (converted)
T9 construct: made in house
T9 sequence (P49799 52-205 C71A/C132A/C148A/C183A/C197A/C204A): as the sequence (P49799 52-205 C148A limits assumed) above, with C20A, C81A, C132A, C146A, C153A counted along it
Method: as §1, §4, §5

[11] = test system: RGS4 no Cys in C-terminus; assay: FCPIA, RGS4 mutant with no Cys in C-terminus; assay type: binding
Method: as §6, §1, §5

Question: With `CC(C)C[C@@H]1NC(=O)CNC(=O)[C@H](CCCCN)NC(=O)[C@@H](NC(=O)[C@H](Cc2c[nH]c3ccccc23)NC(=O)[C@@H](N)Cc2ccc(O)cc2)CSSC[C@@H](C(=O)N[C@@H](CCCCN)C(N)=O)NC1=O` [Peptide 5nd, Tyr-Trp-c [Cys-Lys-Gly-Leu-Cys]-Lys-NH2, S-S] (H-YWCKGLCK-NH2; disulfide 3-7) as the molecule, how does the IC50 [1] read?
Answer: 53.7 µM

Question: And the IC50 [2]?
Answer: 309 µM

Question: And the IC50 [3]?
Answer: 631 µM

Question: And the IC50 [4]?
Answer: 389 µM

Question: What about the IC50 [5] of the same molecule?
Answer: 45.7 µM

Question: What about the IC50 [6] of the same molecule?
Answer: 575 µM

Question: What about the IC50 ([7]; no Cys in RGS domain, read-out: 5nd logIC50 (converted)) of the same molecule?
Answer: 158 µM

Question: And the “reduction of potency by removal of all 4 cysteines from the RGS domain” value ([7]; versus wild type RGS4)?
Answer: 3.6 fold

Question: And the IC50 [8]?
Answer: 19.5 µM

Question: And the solubility [9]?
Answer: 463 µM (≈ 462 µg/mL)

Question: And the IC50 [10]?
Answer: 263 µM

Question: What about the “5nd logIC50” value [11] of the same molecule?
Answer: -4.39 ± 0.07 M
